{"source": "patent US20260174777A1", "about": "“METHODS OF TREATMENT” (Arena Pharmaceuticals, Inc., priority 2022, published 2026)", "key": {"[1]": {"tested_on": "drop seizures in patients with Lennox-Gastaut Syndrome", "details": "Phase 3 studies, versus placebo; cited from earlier work"}, "[2]": {"details": "for CL/F Mean / Cav Mean / Ctrough Mean: healthy subjects"}, "prolactin [3]": {"tested_on": "prolactin", "test": "single ascending dose study with healthy subjects: prolactin pharmacodynamics", "assay_type": "in vivo, human", "details": "single doses"}, "clinical [4]": {"test": "clinical", "details": "human; for CL renal: plasma and urine; for half-life / Cmax / Tmax / AUC(0-inf) / Vd/F: plasma"}, "clinical [5]": {"test": "clinical", "details": "human, plasma, oral"}, "prolactin [6]": {"tested_on": "prolactin", "test": "multiple ascending dose study with healthy subjects: prolactin pharmacodynamics", "assay_type": "in vivo, human", "details": "multiple doses TID", "procedure": "Prolactin serum concentrations were summarized by timepoint, dose and part. Absolute and percent change from baseline in prolactin value was calculated, with predose value on Day 1 considered as the baseline value. Observed prolactin data, absolute and percent change from baseline versus time were plotted."}, "[7]": {"test": "multiple ascending dose study with healthy subjects: safety and tolerability", "assay_type": "in vivo, human"}, "[8]": {"test": "single ascending dose study with healthy subjects: safety and tolerability", "assay_type": "in vivo, human", "details": "single doses 1 to 24 mg"}, "[9]": {"test": "single ascending dose study with healthy subjects: pharmacokinetics"}, "[10]": {"details": "3 mg TID, no titration, 14 days"}, "[11]": {"details": "6 mg TID, no titration, 14 days"}, "[12]": {"details": "12 mg TID, no titration, 14 days"}, "[13]": {"details": "18 mg TID, no titration, 14 days"}, "[14]": {"details": "multiple doses TID, healthy subjects"}}, "note": "“Also recorded” adds a separate entry of the source. Like-named read-outs stand apart in the source and are kept apart here."}
{"smiles": "CCNC(C)Cc1cccc(C(F)(F)F)c1", "note": "(stereo not shown) [fenfluramine]", "values": [{"measurement": "reduction of the frequency of drop seizures", "setting": "[1]", "result": "superior to placebo"}]}
{"smiles": "C[C@H]1CN2CCNCc3ccc(C(=O)NCC(F)F)c1c32", "note": "[Compound 1, (R)-N-(2,2-difluoroethyl)-7-methyl-1,2,3,4,6,7-hexahydro-[1,4]diazepino[6,7,1-hi]indole-8-carboxamide]", "values": [{"measurement": "CL/F Mean", "setting": "[2]; [10]", "result": 125, "unit": "L/h"}, {"measurement": "Cav Mean", "setting": "[2]; [10]", "result": 3.39, "unit": "ng/mL"}, {"measurement": "Ctrough Mean", "setting": "[2]; [10]", "result": 1.94, "unit": "ng/mL"}, {"measurement": "CL/F Mean", "setting": "[2]; [11]", "result": 66.6, "unit": "L/h"}, {"measurement": "Cav Mean", "setting": "[2]; [11]", "result": 12.5, "unit": "ng/mL"}, {"measurement": "Ctrough Mean", "setting": "[2]; [11]", "result": 7.02, "unit": "ng/mL"}, {"measurement": "CL/F Mean", "setting": "[2]; [12]", "result": 63.1, "unit": "L/h"}, {"measurement": "Cav Mean", "setting": "[2]; [12]", "result": 26.6, "unit": "ng/mL"}, {"measurement": "Ctrough Mean", "setting": "[2]; [12]", "result": 15.8, "unit": "ng/mL"}, {"measurement": "CL/F Mean", "setting": "[2]; [13]", "result": 45.9, "unit": "L/h"}, {"measurement": "Cav Mean", "setting": "[2]; [13]", "result": 60.0, "unit": "ng/mL"}, {"measurement": "Ctrough Mean", "setting": "[2]; [13]", "result": 37.7, "unit": "ng/mL"}, {"measurement": "CL/F Mean", "setting": "[2]; 24 mg TID, 3-day titration", "result": 62.9, "unit": "L/h"}, {"measurement": "Cav Mean", "setting": "[2]; 24 mg TID, 3-day titration", "result": 60.1, "unit": "ng/mL"}, {"measurement": "Ctrough Mean", "setting": "[2]; 24 mg TID, 3-day titration", "result": 34.0, "unit": "ng/mL"}, {"measurement": "dose eliminated by the renal route in 48 hours", "setting": "[2]; 12/24 mg TID titration regimen", "result": 12.3, "unit": "%"}, {"measurement": "accumulation upon multiple dosing", "setting": "[2]; TID regimen, listed as Study Drug", "result": "Significant accumulation; also recorded: dose dependent accumulation"}, {"measurement": "steady-state achieved by", "setting": "[2]; doses up to 18 mg TID, in most cases", "result": "≤ 10", "unit": "days"}, {"measurement": "absorption into systemic circulation", "setting": "[2]; first dose and multiple oral doses, powder-in-capsule formulation", "result": "rapidly absorbed"}, {"measurement": "dosing time after which most subjects were at steady state", "setting": "[2]; non-titration part", "result": 10, "unit": "days"}, {"measurement": "prolactin levels by 24-hour postdose", "setting": "prolactin [3]", "result": "returned to baseline for only the 6 mg dose level"}, {"measurement": "prolactin mean % CFB at 2 hours", "setting": "prolactin [3]", "result": "increased in a dose-dependent manner, with a greater than dose proportional increase between 6 mg and 12 mg doses"}, {"measurement": "prolactin", "setting": "prolactin [3]; within 2 h", "result": "increased within 2 h in a dose- and concentration-dependent manner"}, {"measurement": "CL renal", "setting": "clinical [4]; oral, 1 mg", "result": 50, "unit": "mL/min"}, {"measurement": "CL renal", "setting": "clinical [4]; oral, 3 mg", "result": 60.3, "unit": "mL/min"}, {"measurement": "CL renal", "setting": "clinical [4]; oral, 6 mg", "result": 57, "unit": "mL/min"}, {"measurement": "CL renal", "setting": "clinical [4]; oral, 12 mg", "result": 70.8, "unit": "mL/min"}, {"measurement": "CL renal", "setting": "clinical [4]; oral, 24 mg", "result": 62.5, "unit": "mL/min"}, {"measurement": "half-life", "setting": "clinical [4]; oral", "result": "5 to 7", "unit": "h"}, {"measurement": "Cmax", "setting": "clinical [4]; oral, 1 mg", "result": 1.08, "unit": "ng/mL"}, {"measurement": "Tmax", "setting": "clinical [4]; oral, 1 mg", "result": 1.54, "unit": "h"}, {"measurement": "AUC(0-inf)", "setting": "clinical [4]; oral, 3 mg", "result": 40.9, "unit": "ng·h/mL"}, {"measurement": "Cmax", "setting": "clinical [4]; oral, 3 mg", "result": 6.36, "unit": "ng/mL"}, {"measurement": "Tmax", "setting": "clinical [4]; oral, 3 mg", "result": 1.02, "unit": "h"}, {"measurement": "Vd/F", "setting": "clinical [4]; oral, 3 mg", "result": 608, "unit": "L"}, {"measurement": "half-life", "setting": "clinical [4]; oral, 3 mg", "result": 4.94, "unit": "h"}, {"measurement": "AUC(0-inf)", "setting": "clinical [4]; oral, 6 mg", "result": 58.7, "unit": "ng·h/mL"}, {"measurement": "Cmax", "setting": "clinical [4]; oral, 6 mg", "result": 9.52, "unit": "ng/mL"}, {"measurement": "Tmax", "setting": "clinical [4]; oral, 6 mg", "result": 1.5, "unit": "h"}, {"measurement": "Vd/F", "setting": "clinical [4]; oral, 6 mg", "result": 1230, "unit": "L"}, {"measurement": "half-life", "setting": "clinical [4]; oral, 6 mg", "result": 6.66, "unit": "h"}, {"measurement": "AUC(0-inf)", "setting": "clinical [4]; oral, 12 mg", "result": 101, "unit": "ng·h/mL"}, {"measurement": "Cmax", "setting": "clinical [4]; oral, 12 mg", "result": 17, "unit": "ng/mL"}, {"measurement": "Tmax", "setting": "clinical [4]; oral, 12 mg", "result": 1.25, "unit": "h"}, {"measurement": "Vd/F", "setting": "clinical [4]; oral, 12 mg", "result": 929, "unit": "L"}, {"measurement": "half-life", "setting": "clinical [4]; oral, 12 mg", "result": 4.67, "unit": "h"}, {"measurement": "AUC(0-inf)", "setting": "clinical [4]; oral, 24 mg", "result": 288, "unit": "ng·h/mL"}, {"measurement": "Cmax", "setting": "clinical [4]; oral, 24 mg", "result": 59.3, "unit": "ng/mL"}, {"measurement": "Tmax", "setting": "clinical [4]; oral, 24 mg", "result": 1.07, "unit": "h"}, {"measurement": "Vd/F", "setting": "clinical [4]; oral, 24 mg", "result": 697, "unit": "L"}, {"measurement": "half-life", "setting": "clinical [4]; oral, 24 mg", "result": 5.09, "unit": "h"}, {"measurement": "Tmax", "setting": "clinical [4]; po", "result": "1 to 1.5", "unit": "h"}, {"measurement": "Tmax", "setting": "clinical [5]", "result": "1 to 2", "unit": "h"}, {"measurement": "AUC", "setting": "clinical [5]; 3 mg TID", "result": 27.1, "unit": "ng·h/mL"}, {"measurement": "AUC(0-inf)", "setting": "clinical [5]; 3 mg TID", "result": 46.1, "unit": "ng·h/mL"}, {"measurement": "AUC(0-t)", "setting": "clinical [5]; 3 mg TID", "result": 38.6, "unit": "ng·h/mL"}, {"measurement": "Cmax", "setting": "clinical [5]; 3 mg TID", "result": 6.61, "unit": "ng/mL"}, {"measurement": "Tmax", "setting": "clinical [5]; 3 mg TID", "result": 1.01, "unit": "h"}, {"measurement": "half-life", "setting": "clinical [5]; 3 mg TID", "result": 5.56, "unit": "h"}, {"measurement": "AUC", "setting": "clinical [5]; 6 mg TID", "result": 99.8, "unit": "ng·h/mL"}, {"measurement": "AUC(0-inf)", "setting": "clinical [5]; 6 mg TID", "result": 152, "unit": "ng·h/mL"}, {"measurement": "AUC(0-t)", "setting": "clinical [5]; 6 mg TID", "result": 150, "unit": "ng·h/mL"}, {"measurement": "Cmax", "setting": "clinical [5]; 6 mg TID", "result": 20.7, "unit": "ng/mL"}, {"measurement": "Tmax", "setting": "clinical [5]; 6 mg TID", "result": 1.78, "unit": "h"}, {"measurement": "half-life", "setting": "clinical [5]; 6 mg TID", "result": 4.81, "unit": "h"}, {"measurement": "AUC", "setting": "clinical [5]; 12 mg TID", "result": 213, "unit": "ng·h/mL"}, {"measurement": "AUC(0-inf)", "setting": "clinical [5]; 12 mg TID", "result": 330, "unit": "ng·h/mL"}, {"measurement": "AUC(0-t)", "setting": "clinical [5]; 12 mg TID", "result": 327, "unit": "ng·h/mL"}, {"measurement": "Cmax", "setting": "clinical [5]; 12 mg TID", "result": 44.9, "unit": "ng/mL"}, {"measurement": "Tmax", "setting": "clinical [5]; 12 mg TID", "result": 1.27, "unit": "h"}, {"measurement": "half-life", "setting": "clinical [5]; 12 mg TID", "result": 5.96, "unit": "h"}, {"measurement": "AUC", "setting": "clinical [5]; 18 mg TID", "result": 480, "unit": "ng·h/mL"}, {"measurement": "AUC(0-inf)", "setting": "clinical [5]; 18 mg TID", "result": 775, "unit": "ng·h/mL"}, {"measurement": "AUC(0-t)", "setting": "clinical [5]; 18 mg TID", "result": 773, "unit": "ng·h/mL"}, {"measurement": "Cmax", "setting": "clinical [5]; 18 mg TID", "result": 98.6, "unit": "ng/mL"}, {"measurement": "Tmax", "setting": "clinical [5]; 18 mg TID", "result": 2, "unit": "h"}, {"measurement": "half-life", "setting": "clinical [5]; 18 mg TID", "result": 5.64, "unit": "h"}, {"measurement": "AUC", "setting": "clinical [5]; 24 mg TID", "result": 480, "unit": "ng·h/mL"}, {"measurement": "AUC(0-inf)", "setting": "clinical [5]; 24 mg TID", "result": 741, "unit": "ng·h/mL"}, {"measurement": "AUC(0-t)", "setting": "clinical [5]; 24 mg TID", "result": 737, "unit": "ng·h/mL"}, {"measurement": "Cmax", "setting": "clinical [5]; 24 mg TID", "result": 107, "unit": "ng/mL"}, {"measurement": "Tmax", "setting": "clinical [5]; 24 mg TID", "result": 1.04, "unit": "h"}, {"measurement": "half-life", "setting": "clinical [5]; 24 mg TID", "result": 6.5, "unit": "h"}, {"measurement": "mean percent change from baseline prolactin level at 2 hours", "setting": "prolactin [6]", "result": "increased with increasing doses from 3 mg to 12 mg and plateaued thereafter"}, {"measurement": "prolactin", "setting": "prolactin [6]", "result": "increased in a dose- and concentration-dependent manner, with greater increase seen after first dose"}, {"measurement": "serious adverse event", "setting": "[7]; after stopping treatment with 24 mg TID", "result": "One"}, {"measurement": "subjects discontinued due to adverse events", "setting": "[7]; forty-three subjects enrolled", "result": "Three"}, {"measurement": "most common TEAEs", "setting": "[7]; [14]", "result": "headache, somnolence, dizziness, dizziness postural, micturition urgency & orthostatic hypotension"}, {"measurement": "severity of majority of treatment emergent adverse events (TEAEs)", "setting": "[7]; [14]", "result": "mild to moderate"}, {"measurement": "severe TEAEs", "setting": "[7]; occurring in 3 subjects, all after cessation of dosing", "result": "Five"}, {"measurement": "most common treatment emergent adverse events", "setting": "[8]", "result": "headache, postural dizziness, and nausea, which were mild to moderate in severity"}, {"measurement": "dose proportionality of peak and total exposure", "setting": "[9]; single doses 1 to 24 mg", "result": "slightly greater than dose proportional especially at higher doses"}, {"measurement": "absorption into the systemic circulation", "setting": "[9]; single oral dose, powder in capsule formulation", "result": "rapidly absorbed"}]}
